Assay results reported in publication PMC9649909, “Wnt-pathway inhibitors with selective activity against triple-negative breast cancer: From thienopyrimidine to quinazoline inhibitors” (Frontiers in Pharmacology, 2022).
Entries after “also recorded” stand apart in the source; their conditions may differ. Like-named read-outs stand apart in the source and are kept apart here.

Key:
HCC1395 TNBC cell line = test: MTT survival assay HCC1395; format: cell-based; conditions: Homo sapiens, HCC1395; Table S2; read-out: MTT HCC-1395 IC50
[1] = tested on: non-cancerous breast epithelial cell line MCF10a; test: MTT survival assay MCF10a; format: cell-based; conditions: for IC50: Homo sapiens, MCF-10A
[2] = tested on: MDA-MB-468 TNBC cell line; test: MTT survival assay MDA-MB-468; format: cell-based; conditions: Homo sapiens, MDA-MB-468; Table S2
BT-20 TNBC cell line = test: MTT survival assay BT-20; format: cell-based; conditions: Homo sapiens, BT-20
[3] = tested on: β-catenin-dependent Wnt-pathway; test: TopFlash luciferase reporter assay, CHIR99021-stimulated, HCC1395; format: cell-based; conditions: Homo sapiens, HCC1395, HCC1395, stimulation with CHIR99021 (GSK3β inhibitor); for Emax: read-out: HCC1395 TopFlash Efficacy; for IC50: read-out: HCC1395 TopFlash IC50
[4] = tested on: β-catenin-dependent Wnt-pathway; test: TopFlash luciferase reporter assay, Wnt3a-stimulated, HCC1395; format: cell-based; conditions: Homo sapiens, stimulation with Wnt3a
Excerpt: The advantage of our platform lies in its ability to discriminate between inhibitors of the β-catenin-dependent Wnt signaling acting at upstream vs. downstream levels of the pathway, by stimulating the pathway at the different levels either with Wnt3a or with a GSK3β inhibitor, like CHIR99021 ([Shaw et al., 2019b]). Both stimulations abolish formation of the destruction complex, a multiprotein complex consisting of Axin, adenomatous polyposis coli (APC), glycogen synthase kinase three beta (GSK3β), and casein kinase one alpha (CK1α). Upon inactivation of the complex, β-catenin accumulates in the cytoplasm and translocates into the nucleus where it interacts with transcription factors. These downstream events are quantified by a Luciferase transcription-based readout assay (TopFlash assay).

[5] = tested on: MDA-MB-231 TNBC cell line; test: MTT survival assay MDA-MB-231; format: cell-based; conditions: for IC50: Homo sapiens, MDA-MB-231
HCC1806 TNBC cell line = test: MTT survival assay HCC1806; format: cell-based; conditions: for IC50: Homo sapiens, HCC1806
[6] = Cytotoxicity by Renilla luciferase under CMV promoter; conditions: human
HCC1395 cells = test: as above
TNBC cell proliferation = test: Loewe synergism with docetaxel in anti-proliferative assay (COMBENEFIT); format: cell-based; conditions: Loewe model
Excerpt: The Wnt-pathway is implicated in chemoresistance to conventional chemotherapies and drives a poor chemotherapy response in a broad range of tumors ([O’Reilly et al., 2015]; [Martin-Orozco et al., 2019]; [Zhong and Virshup, 2020]). To assess how combination with our compounds affects the anti-proliferative capacity of docetaxel—one of the first-line treatments for TNBC ([Mandapati and Lukong, 2022]), we performed the Loewe synergism assessment over a complete dose-response range of both compounds followed by analysis in the COMBENEFIT software in Matlab (Figure 7 and Supplementary Figure S1) ([Di Veroli et al., 2016]).
Indicated TNBC cell lines were detached and resuspended at 120,000 cells/ml and added into each well of a transparent 384-well plate in the final volume of 20 µl/well. The cells were maintained in DMEM containing 10% FBS at 37°C, 5% CO2 overnight. Next day, the medium in each well was replaced by 40 μl of the fresh one containing the indicated concentrations of compounds. In case of drug combination experiments, each compound dilution was delivered in corresponding well in 20 μl of medium. […] After incubation for 3–4 days, depending on the cell line, the medium in each well was replaced by 25 μl of 0.5 mg/ml Thiazolyl blue solution in 1xPBS following by incubation for 3 h at 37°C. Then the solution was removed and 25 μl DMSO was added into each well. Absorbance at 510 nm was measured in a Tecan Infinite M200 PRO plate reader.
The data was visualized analyzed in either GraphPad Prism nine using indicated statistical analysis or in R using gplots package ([Warnes et al., 2009]). Dataset from CCLE ([Barretina et al., 2012]) were used in the study and pathway enrichment analysis was performed by DAVID online tool ([Sherman et al., 2022]). Drug combination data was treated in COMBENEFIT software ([Di Veroli et al., 2016]). Network was built using Cytoscape with StringDB plugin ([Shannon et al., 2003]; [Szklarczyk et al., 2021]).

[7] = tested on: panel of luciferase reporters with basal activities in HCC1395 cells; test: Panel of other luciferase transcriptional reporters in HCC1395; format: cell-based; conditions: HCC1395, 5 µM
Method: Compound 5d (IC50 = 0.6 µM, Table 2) was used as a representative to analyze the selectivity of the chemotype towards the Wnt-pathway, by profiling it against a panel of different transcriptional reporters with significant basal activities in HCC1395 cells (Figure 5). […] We thus conclude that the anti-proliferative effect of the compound is related exclusively to the suppressed Wnt signaling.

[8] = Table S2, read-out: MTT MCF10 IC50
[9] = Table S2, read-out: MTT BT-20 IC50
[10] = Table S2, read-out: MTT MDA-MB-231 IC50
[11] = Table S2, read-out: MTT HCC1806 IC50
[12] = Figure 3B heatmap, read-out: IC50, μM (HCC1806)
[13] = Figure 3B heatmap, read-out: IC50, μM (MCF10)

IC50 [3] [µM]	Structure (SMILES)	IC50 (HCC1395 TNBC cell line) [µM]	IC50 [1, 8] [µM]	MTT MCF10 Comments ([1]; Table S2)	IC50 [2] [µM]	IC50 (BT-20 TNBC cell line; [9]) [µM]	Emax [3] [%]	IC50 [5, 10] [µM]	IC50 (HCC1806 TNBC cell line; [11]) [µM]	effect of co-treatment with docetaxel (TNBC cell proliferation)	MTT MDA-MB-231 Comments ([5]; Table S2)	IC50 (HCC1806 TNBC cell line; [12]) [µM]	IC50 ([6]; HCC1395 Cytotoxicity IC50) [µM]	GSK HCC1395 Renilla Comments (HCC1395 cells)	IC50 [1, 13] [µM]	further results
0.77 ± 0.44	COc1ccccc1C(C)Nc1ncnc2sccc12 (stereo not shown) [Compound 5a, N-(1-(2-methoxyphenyl)ethyl)thieno[2,3-d]pyrimidin-4-amine]	0.12	> 10	Inactive	0.1	4.08	46.1 ± 3.44	> 10	> 10	exclusively synergistic effects	Inactive	> 50	> 50	Non-toxic	–	MTT HCC1806 Comments (HCC1806 TNBC cell line; Table S2): Inactive
0.6 ± 0.33	CC(Nc1ncnc2sccc12)c1ccc(Cl)cc1 (stereo not shown) [Compound 5d, N-(1-(4-chlorophenyl)ethyl)thieno[2,3-d]pyrimidin-4-amine]	0.39	6.48	–	1.67	6.89	55.4 ± 24.3	> 10	9.12	–	Inactive	> 50	24 ± 4.98	–	> 10	inhibition of other signaling pathway reporters [7]: none other signaling pathways are affected; also recorded: no inhibition; IC50 (BT-20 TNBC cell line; Figure 3B heatmap, no activity up to maximal tested concentration, read-out: IC50, μM (BT20)): > 50 µM; HCC1395 Cytotoxicity Efficacy (HCC1395 cells; human): 100 ± 0%
1.79 ± 1.45	Clc1ccc(CCNc2ncnc3sccc23)cc1 [Compound 5m, N-(4-chlorophenethyl)thieno[2,3-d]pyrimidin-4-amine]	3.7	> 50	Inactive	8.46	6.72	82 ± 21.1	> 50	13.1	exclusively synergistic effects	–	–	> 50	Non-toxic	> 10	IC50 ([5]; Figure 3B heatmap, read-out: IC50, μM (MDA-MB-231)): > 10 µM

Structure (SMILES)	IC50 [3] [µM]	IC50 (HCC1395 TNBC cell line) [µM]	IC50 [1, 8] [µM]	MTT MCF10 Comments ([1]; Table S2)	IC50 [2] [µM]	IC50 (BT-20 TNBC cell line; [9]) [µM]	Emax [3] [%]	IC50 [5, 10] [µM]	IC50 (HCC1806 TNBC cell line; [11]) [µM]	effect of co-treatment with docetaxel (TNBC cell proliferation)	MTT MDA-MB-231 Comments ([5]; Table S2)	IC50 (HCC1806 TNBC cell line; [12]) [µM]	IC50 ([6]; HCC1395 Cytotoxicity IC50) [µM]	GSK HCC1395 Renilla Comments (HCC1395 cells)	IC50 [1, 13] [µM]	further results
c1ccc(CNc2ncnc3sccc23)cc1 [Compound 4a, N-benzylthieno[2,3-d]pyrimidin-4-amine]	8.47	2.52	> 10	Inactive	2.13	16.3	72	19.2	2.33	–	–	–	–	–	–	IC50 [4]: 8.31 µM; MTT MDA-MB-231 plateau ([5]; Table S2): 100; IC50 [6]: > 50 µM; Cytotoxicity (Renilla) in words (HCC1395 cells; HCC1395): not toxic; also recorded: no cytotoxic activity; GSK HCC1395 Renilla Comments (HCC1395 cells; Table S2): Non-toxic
